Assay results: ChEMBL document CHEMBL5236556, “Development of Cdc2-like Kinase 2 Inhibitors: Achievements and Future Directions” (J Med Chem, 2021)
Active and inactive are the calls of the source. No cut-off for these calls is given here.

Assays:
Homo sapiens [1] = organism: Homo sapiens; assay: Selectivity ratio of IC50 for inhibition of human CLK3 to IC50 for inhibition of human CLK2 by biochemical caliper assay
[2] = target: T1, Dual specificity protein kinase CLK1 (Homo sapiens, UniProt P49759)
T1 sequence (P49759 whole entry): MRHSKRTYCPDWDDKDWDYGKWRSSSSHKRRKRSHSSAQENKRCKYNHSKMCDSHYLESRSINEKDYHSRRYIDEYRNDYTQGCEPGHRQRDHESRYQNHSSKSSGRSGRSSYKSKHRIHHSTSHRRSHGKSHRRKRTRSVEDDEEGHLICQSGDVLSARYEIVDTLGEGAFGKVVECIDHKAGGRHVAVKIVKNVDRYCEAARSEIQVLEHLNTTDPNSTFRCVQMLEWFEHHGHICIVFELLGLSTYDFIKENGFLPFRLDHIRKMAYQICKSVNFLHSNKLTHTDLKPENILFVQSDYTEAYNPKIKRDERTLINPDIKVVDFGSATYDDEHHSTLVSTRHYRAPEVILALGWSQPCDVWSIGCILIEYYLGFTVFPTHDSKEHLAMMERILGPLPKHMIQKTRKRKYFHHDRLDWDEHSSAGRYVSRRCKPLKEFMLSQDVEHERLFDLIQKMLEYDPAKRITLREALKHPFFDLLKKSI

[3] = target: T2, Dual specificity protein kinase CLK2 (Homo sapiens, UniProt P49760); assay: Inhibition of human CLK2 at 1 uM
Target sequence in this assay (P49760 whole entry, looked up): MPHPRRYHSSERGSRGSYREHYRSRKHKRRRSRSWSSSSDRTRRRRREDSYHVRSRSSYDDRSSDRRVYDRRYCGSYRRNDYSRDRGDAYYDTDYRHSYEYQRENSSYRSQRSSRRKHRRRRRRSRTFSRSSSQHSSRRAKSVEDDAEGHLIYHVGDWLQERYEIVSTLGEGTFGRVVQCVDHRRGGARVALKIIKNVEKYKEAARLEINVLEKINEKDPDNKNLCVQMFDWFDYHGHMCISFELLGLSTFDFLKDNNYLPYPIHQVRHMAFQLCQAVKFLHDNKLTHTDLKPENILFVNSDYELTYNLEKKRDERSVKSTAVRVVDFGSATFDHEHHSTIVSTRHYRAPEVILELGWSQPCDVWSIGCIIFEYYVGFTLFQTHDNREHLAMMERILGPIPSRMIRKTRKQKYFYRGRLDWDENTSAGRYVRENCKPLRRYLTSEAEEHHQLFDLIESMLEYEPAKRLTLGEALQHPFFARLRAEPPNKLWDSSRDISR

[4] = target: T3, Dual specificity protein kinase CLK3 (Homo sapiens, UniProt P49761)
Target sequence in this assay (P49761 whole entry): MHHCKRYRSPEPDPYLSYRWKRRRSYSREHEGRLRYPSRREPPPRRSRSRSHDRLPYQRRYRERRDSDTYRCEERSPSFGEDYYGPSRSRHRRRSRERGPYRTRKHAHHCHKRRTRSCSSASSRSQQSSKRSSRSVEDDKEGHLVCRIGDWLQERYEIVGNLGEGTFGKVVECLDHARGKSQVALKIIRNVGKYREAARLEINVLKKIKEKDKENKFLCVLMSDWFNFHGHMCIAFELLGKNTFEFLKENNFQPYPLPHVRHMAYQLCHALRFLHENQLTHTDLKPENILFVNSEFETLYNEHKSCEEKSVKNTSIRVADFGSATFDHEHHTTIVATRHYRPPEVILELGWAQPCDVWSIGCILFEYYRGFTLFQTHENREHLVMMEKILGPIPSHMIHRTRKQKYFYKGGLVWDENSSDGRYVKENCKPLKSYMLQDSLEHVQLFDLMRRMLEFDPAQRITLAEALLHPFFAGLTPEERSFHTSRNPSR

Cancer cell lines = assay: Antiproliferative activity against cancer cells (unknown origin); format: functional, cell-based; conditions: Homo sapiens
[5] = target: T2, Dual specificity protein kinase CLK2
Target sequence in this assay (P49760 whole entry): as the sequence (P49760 whole entry, looked up) above

[6] = target: T2, Dual specificity protein kinase CLK2; assay: Inhibition of human CLK2 measured by DSF assay
Target sequence in this assay (P49760 whole entry, looked up): as above

Homo sapiens [7] = organism: Homo sapiens; assay: Inhibition of DYRK kinase (unknown origin) at 100 uM
MCF7 = assay: Cytotoxicity against human MCF7 cells; format: functional, cell-based
PC-3 = assay: Cytotoxicity against human PC-3 cells; format: functional, cell-based
[8] = target: T4, Dual specificity protein kinase CLK4 (Homo sapiens, UniProt Q9HAZ1)
T4 sequence (Q9HAZ1 whole entry): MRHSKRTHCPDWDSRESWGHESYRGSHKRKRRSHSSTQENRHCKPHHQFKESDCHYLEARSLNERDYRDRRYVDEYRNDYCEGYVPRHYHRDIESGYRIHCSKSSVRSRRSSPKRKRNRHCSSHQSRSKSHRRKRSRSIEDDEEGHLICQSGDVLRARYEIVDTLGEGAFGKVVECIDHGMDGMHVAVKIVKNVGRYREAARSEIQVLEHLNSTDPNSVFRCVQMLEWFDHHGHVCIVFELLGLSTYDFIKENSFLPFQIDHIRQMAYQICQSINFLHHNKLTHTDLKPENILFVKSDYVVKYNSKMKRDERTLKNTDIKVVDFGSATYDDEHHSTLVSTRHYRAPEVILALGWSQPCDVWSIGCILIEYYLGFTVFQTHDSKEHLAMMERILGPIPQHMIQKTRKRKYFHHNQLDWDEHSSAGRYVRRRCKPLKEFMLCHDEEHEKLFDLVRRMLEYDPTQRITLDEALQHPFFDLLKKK

[9] = target: T3, Dual specificity protein kinase CLK3; assay: Inhibition of human CLK3 assessed as residual activity at 3 uM
Target sequence in this assay (P49761 whole entry, looked up): as the sequence (P49761 whole entry) above

[10] = tested on: Triple-negative breast cancer cell; assay: Antitumour activity expressed in triple negative breast cells (unknown origin) with dysfunctional G1-S checkpoint; format: functional, cell-based; conditions: Homo sapiens
Lung cancer cell line = assay: Cytotoxicity against lung cancer cells (unknown origin); format: functional, cell-based; conditions: Homo sapiens
[11] = target: T1, Dual specificity protein kinase CLK1; assay: Inhibition of human CLK1 administered orally
[12] = target: T2, Dual specificity protein kinase CLK2; assay: Inhibition of human CLK2 administered orally
Target sequence in this assay (P49760 whole entry): as the sequence (P49760 whole entry, looked up) above

[13] = target: T4, Dual specificity protein kinase CLK4; assay: Inhibition of human CLK4 administered orally
[14] = target: T3, Dual specificity protein kinase CLK3; assay: Inhibition of human CLK3 administered orally
Target sequence in this assay (P49761 whole entry): as the sequence (P49761 whole entry) above

[15] = target: SRSF protein kinase 1 (Homo sapiens) (UniProt Q96SB4); assay: Inhibition of SRSF phosphorylation in human HeLa cells; format: cell-based
Chain of SRSF protein kinase 1 (Homo sapiens) (Q96SB4 whole entry): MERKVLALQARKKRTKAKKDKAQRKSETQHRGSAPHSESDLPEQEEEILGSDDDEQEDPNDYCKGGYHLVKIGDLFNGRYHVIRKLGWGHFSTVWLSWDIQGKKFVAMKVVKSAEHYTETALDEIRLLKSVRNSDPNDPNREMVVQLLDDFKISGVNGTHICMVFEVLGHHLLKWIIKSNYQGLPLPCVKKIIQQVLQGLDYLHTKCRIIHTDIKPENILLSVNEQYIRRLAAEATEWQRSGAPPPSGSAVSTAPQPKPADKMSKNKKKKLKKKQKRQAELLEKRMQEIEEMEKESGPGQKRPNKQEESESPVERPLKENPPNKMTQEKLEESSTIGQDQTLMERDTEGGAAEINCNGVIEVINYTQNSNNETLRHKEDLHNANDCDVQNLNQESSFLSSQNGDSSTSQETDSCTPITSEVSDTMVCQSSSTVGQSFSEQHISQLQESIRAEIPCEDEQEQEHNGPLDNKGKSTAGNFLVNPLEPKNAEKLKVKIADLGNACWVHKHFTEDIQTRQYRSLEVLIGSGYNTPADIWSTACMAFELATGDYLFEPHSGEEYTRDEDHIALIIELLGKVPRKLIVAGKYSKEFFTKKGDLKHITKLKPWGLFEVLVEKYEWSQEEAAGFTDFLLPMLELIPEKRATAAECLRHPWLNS

Mus musculus = organism: Mus musculus; assay: Induction of autophagy in APAP induced liver injury mouse model; format: functional, organism-based
[16] = Antifibrotic activity in TGF-beta1 induced primary human lung fibroblast; format: functional, cell-based
[17] = target: T2, Dual specificity protein kinase CLK2; assay: Inhibition of CLK2 (unknown origin)
Target sequence in this assay (P49760 whole entry): as the sequence (P49760 whole entry, looked up) above

[18] = target: T1, Dual specificity protein kinase CLK1; assay: Inhibition of CLK1 (unknown origin)
MDA-MB-231 = assay: Cytotoxicity against MDA-MB-231 cells (unknown origin) assessed as supressed cell growth; format: functional, cell-based; conditions: Homo sapiens
T-24 = assay: Cytotoxicity against T24 cells (unknown origin) assessed as supressed cell growth; format: functional, cell-based; conditions: Homo sapiens

Row | Structure (SMILES) | IC50 [2] [nM] | IC50 [4] [nM] | IC50 [5] [nM] | also measured
1 | Cc1[nH]nc2ccc(-c3cncc(OC[C@@H](N)CC(C)C)c3)cc12 |  |  |  | Ratio IC50 (Homo sapiens [1]): 225
2 | c1cc(-c2ccc3[nH]ncc3c2)ccn1 | 113 |  |  | inhibition [3]: 85%
3 | O=C1NCc2ccc3c(-c4cccc(Cl)c4)c[nH]c3c21 | 88 | 28 | 510 | Activity (Cancer cell lines): Active
4 | N=C1NC(=O)/C(=C/c2ccc3c(c2)CCO3)S1 |  |  | 6800 | 
5 | CCOC(=O)c1c(/C(C#N)=C\N)c2ccc(Cl)c(Cl)c2n1C |  |  |  | inhibition [6]: Active
6 | O=[N+]([O-])c1ccccc1-n1cc(COc2cccc3cnc(Nc4cccc(Cl)c4)nc23)nn1 | 11 | > 1000 | 27 | inhibition (Homo sapiens [7]): inactive; IC50 (MCF7): 4000 nM; IC50 (PC-3): 7000 nM; IC50 [8]: 20 nM
7 | COc1ccc(NC(=O)c2n[nH]c3ccc(-c4cncc(CN5CCCCC5)c4)cc23)cc1 |  |  | 0.822 | 
8 | CC(C)c1cnn2c(NCc3ccc(-c4ccccn4)cc3)nc(N[C@H]3CC[C@H](N)CC3)nc12 | 100 | 2.9 | 130 | IC50 [8]: 89 nM
9 | O=C(O)c1nc2ccccc2c2[nH]c3c(Cl)cccc3c12 | 130 | > 100 |  | IC50 [8]: 45 nM
10 | CNC(=O)c1ccc(Nc2nc(OC3CCCC3)c3c(-c4ccc5nc(C)oc5c4)c[nH]c3n2)c(OC)c1 |  |  |  | Activity [9]: 60%; Activity [10]: Active; Activity (Lung cancer cell line): Active
11 | Cc1nc2ccc3sc(NC(=O)c4ccc5scnc5c4)nc3c2s1 | 51 | 346 | 68 | 
12 | CN1C(=O)/C(=C/c2ccc3c(c2)OCO3)N=C1N [LEUCETTAMINE B] |  |  | 720 | 
13 | O=C1NCc2c(Cl)cc3c(-c4ccccc4)c[nH]c3c21 | 380 | 300 | 33 | 
14 | CNc1nc(NCc2ncccn2)c2c(-c3ccc4ncccc4c3)c[nH]c2n1 |  |  |  | IC50 [11]: 4.8 nM; IC50 [12]: 0.096 nM; IC50 [13]: 0.61 nM; IC50 [14]: 6.5 nM
15 | CC(C)(C)c1ccc(C(=O)Nc2cn3cc(-c4ccncc4)ccc3n2)cn1 | 1.1 |  | 2.4 | 
16 | CN1CCN(C(=O)C(C)(C)c2ccc(C(=O)Nc3cn4cc(-c5ccncc5)ccc4n3)cc2)CC1 |  |  |  | inhibition [15]: Dose-Dependent Effect
17 | COc1cc(Nc2nccc(-c3cnn4nc(OC)ccc34)n2)cc(C(F)(F)F)c1 | 13 |  |  | 
18 | Cc1ccc(CNc2ncnc3ccc(-c4ccc(CO)o4)cc23)o1 |  | > 10000 |  | 
19 | CC(C)(CO)c1ccc(C(=O)Nc2cn3cc(-c4cn[nH]c4)ccc3n2)cn1 | 1.1 |  | 2.1 | 
20 | COc1cc(/C=C2\N=C(N)NC2=O)ccc1O [POLYANDROCARPAMINE A] | 470 | > 2000 | 640 | IC50 [8]: 470 nM
21 | C[C@@H](c1ccc(F)cc1)n1nnc2cnc3ccc(-c4ccc5ocnc5c4)cc3c21 |  | 8 |  | Activity (Mus musculus): Active
22 | COc1ccc2sc(C(=O)N(C)OC)cc2c1 |  |  |  | inhibition [3]: 73%
23 | O=C(Nc1cccnc1)c1c[nH]nc1-c1nc2c(-c3cccc(F)c3)cccc2[nH]1 |  |  | 11 | EC50 [16]: 18 nM
24 | CC(C)n1cnc2c(Nc3cc(N)cc(Cl)c3)nc(NC3CCCCC3N)nc21 (stereo not drawn) | 17 | 1000 | 6 | IC50 [8]: 25 nM
25 | COc1cccc2c1[nH]c1c3ccncc3cc(C#N)c21 |  |  |  | IC50 [17]: 41 nM; IC50 [18]: 44 nM
26 | COc1c(O)ccc2c(=O)c3c(O)cc4c(c3[nH]c12)C=CC(C)(C)O4 | 210 | > 2000 |  | 
27 | c1csc(CNc2ncnc3ccc(-c4ccc5c(c4)OCO5)cc23)c1 | 37 | 470 | 680 | IC50 [8]: 50 nM
28 | O=C1NC(Nc2ccccc2)=N/C1=C\c1ccc2c(c1)OCO2 |  | > 10000 |  | IC50 [8]: 64 nM
29 | COc1ccc2sc(C(=O)N(C)Cc3cccc(F)c3)cc2c1 | 7 |  | 19.1 | Activity (MDA-MB-231): Active; Activity (T-24): Active; IC50 [8]: 2.3 nM
